Test results reported in patent publication US20050074777A1, “Novel cell-surface estrogen receptor and related compositions and methods” (priority 2002, published 2005).
“Also recorded” adds a separate entry of the source.

How the values were obtained:
ERK1/2 phosphorylation [1] = conditions: neocortical explants (Singh, 2000); cited from earlier work
ERK1/2 phosphorylation [2] = experiment: ERK1/2 phosphorylation in post-nuclear supernatant (PNS), cell-free system; format: biochemical, mouse; conditions: for phosphorylation of ERK1 and ERK2: P7 wild-type neocortical PNS, 10 minutes, 37° C.
Text: Isolation of post-nuclear supernatant (PNS). To increase the yield of ER-X and to test in a cell-free system whether the presence of ER-α is inhibitory for ERK activation, as had been shown previously in neocortical cultures (Singh, 2000), PNS, a cell-free system which contains all the cell organelles except the nucleus, was studied. PNS was isolated from P7 wild-type and ERKO neocortices according to the method of Smart et al. (Smart, 1995). Three to four P7 wild-type and ERKO neocortices were homogenized using a teflon homogenizer in 1 ml of 20 mM Tricine, pH 7.8 buffer, containing 1 mM EDTA, 0.25M sucrose, 10 μg/ml aprotinin and 1 μg/ml leupeptin. The homogenate was centrifuged at 1000×g at 4° C. for 10 minutes. The supernatant obtained is the PNS. The pellet was resuspended in 500 μl of the homogenization buffer, re-centrifuged, and the PNS obtained was pooled with the first PNS. ERKO and wild-type PNS were mixed with 10X phosphorylation buffer, and the MAPK assay was performed as described above.

ERK1/2 phosphorylation [3] = experiment: Phosphorylation of ERK1/2 in ERKO CLM and non-CLM preparations; format: biochemical, mouse; conditions: for phosphorylation of ERK1/2: 30 minutes
Description: Phosphorylation of ERK1/2 in CLM and non-CLM preparations. Phosphorylation of ERK1/2 in ERKO CLM and non-CLM preparations was examined following the method of Liu et al. (Liu, 1997), except that basal medium Eagle (BME) was used in the place of MEM. Nine parts of CLM or non-CLM preparations were mixed with one part of 10×BME, pH 7.4 containing BSA 800 μg/ml, 10 mM NaF, 2 mM Na3VO4, leupeptin 100 μg/ml, soybean trypsin inhibitor 100 μg/ml, 10 mM MgCl2, and 1 mM ATP. […] Cell Signaling Technology, Beverly, Mass.) for 30 minutes prior to pulsing them with the appropriate estradiol. […] (Singh, 1999; and Singh, 2000).

[4] = system: ER-X (plasma-membrane estrogen binding site of P7 ERKO neocortex); experiment: Specificity (competition) of 3H-estradiol binding in Percoll-purified P7 ERKO neocortical membranes; set-up: species or system mouse; conditions: 2 nM 3H-estradiol, 18 hours at 4° C.
Description: Binding of ^3H estradiol to Percoll®-purified plasma-membranes from P7 ERKO and wild-type mouse neocortex. (a) Identical amounts of membrane protein (50 μg/tube) were incubated with varying concentrations of ^3H estradiol (0.3-8 nM) for 18 hours at 4° C. The reaction was terminated by addition of hydroxylapatite (HAP). The membranes and HAP were sedimented by centrifugation in a microfuge, and the pellet washed 4 times to remove free steroid. Radioactivity in the pellets was extracted with ethanol and counted. […] (b) Specificity of the binding site in Percoll®-purified membranes from P7 ERKO mouse neocortex. […] Bound ^3H estradiol was separated by sedimentation with HAP and counted at an efficiency of 50%. Data represent the number of bound counts (after subtraction of HAP-only blank control tubes, containing no membrane protein) expressed as the means +/−S.D. of triplicate determinations. The horizontal dashed line indicates the level of non-specific binding observed in the presence of 1 μM DES. Estrogen binding assay. Duplicate aliquots of 1 mg each of protein lysate from ERKO P7 neocortex or wild-type adult uterus were pre-cleared for 30 minutes using anti-rabbit-IgG-coated magnetic beads (Dynal AS). Pre-cleared protein lysates were immunoprecipitated with anti-ER-α antibodies (6F11, Novocastra; or MC20, Santa Cruz) at 4° C. overnight. […] NEN Life Sciences, Boston, Mass.) at 4° C. for 18 hours. The incubation was terminated by adsorption of the binding sites onto an equal volume of hydroxylapatite (HAP) slurry in TESD buffer. HAP pellets were washed four times with Tris-buffered saline containing 0.2% Tween-20 buffer and extracted with 1 ml absolute ethanol overnight at room temperature. The ethanol supernatants were transferred to liquid scintillation fluid (5 ml) and counted. Control tubes, used in assessing HAP adsorption of free steroid, contained HAP and the same buffer constituents, without addition of the membranes. Non-specific binding was assayed in the membranes using the same amount of radioactive ligand plus 200-fold molar excess of unlabeled diethylstilbestrol (DES) (Sigma-Aldrich). Specific binding was calculated by subtracting non-specific from total binding.

ERK1/2 phosphorylation [5] = experiment: ERK1/2 phosphorylation in neocortical explant cultures (Western immunoblot); format: cell-based, mouse; conditions: wild-type neocortical cultures
Description: Neocortical cultures. Organotypic explant cultures, obtained from 360 pm hemi-coronal slices of the frontal and cingulate neocortex of P2 wild-type and ERKO mice (day of birth =P1), were explanted onto collagen-coated, poly-D-lysine pre-coated coverslips and maintained in roller tube culture with gonadal steroid-deficient (gelding serum) and phenol red-free nutrient medium, as previously described (Singh, 1999; and Singh, 2000). The nutrient medium was supplemented with 17β-estradiol (2 nM; Sigma-Aldrich, St. Louis, Mo.) for one week, in order to optimize the development of CNS cultures from estrogen target regions. […]
Antibody binding to protein was detected using a secondary antibody conjugated to horseradish peroxidase (1:40,000; Pierce Chemical Company, Rockford, Ill.), and visualized autoradiographically on film using enzyme-linked chemiluminescence (ECL®; Amersham Pharmacia Biotech) (Singh et, 1999; and Singh, 2000). All blots were stripped and re-probed with the appropriate antibody to verify equal loading of protein across lanes and were analyzed densitometrically. […]

[6] = system: estrogen-binding protein (ER-X); experiment: DES-sensitive 3H-estradiol binding in CLM preparations and lysates; set-up: species or system mouse; conditions: unlabeled competitor in excess
Description: Caveolar-like membrane (CLM) preparation. Membrane fractions were prepared by adapting the detergent-free method of Smart et al. (Smart, 1995). Briefly, pools of 40-50 P7 ERKO neocortices were homogenized in 20 mM Tricine, pH 7.8 buffer, containing 1 mM EDTA, 0.25M sucrose and 1 mM dithiothreitol (TESD buffer), then centrifuged at 1000×g at 4° C. for 10 minutes. The pellet was resuspended in TESD buffer, re-centrifuged, and the supernatants pooled. The combined supernatants were subjected to Percoll® gradient fractionation in the same buffer to isolate the plasma membrane fraction. In some binding experiments (indicated below), Percoll® purified plasma membranes were used without further fractionation. For preparation of CLMs, plasma-membranes were sonicated and further separated by centrifugation on a linear 20% to 10% OptiPrep (iodixanol) gradient (Nycomed Pharma AS, Oslo, Norway). Based upon their light buoyant density, CLMs were separated and purified from non-CLMs using two OptiPrep density gradients. […] Electrophoretically separated CLMs on PVDF membranes were probed with antibodies specific for ER-α ([…], UBI; MC20, Santa Cruz), ER-β (Zymed), flotillin (BD Transduction Labs) and other caveolar-resident proteins (PKC-α and PKC-γ, BD Transduction Labs) and non-caveolar-resident proteins (paxillin, BD Transduction Labs). Estrogen binding assay. Duplicate aliquots of 1 mg each of protein lysate from ERKO P7 neocortex or wild-type adult uterus were pre-cleared for 30 minutes using anti-rabbit-IgG-coated magnetic beads (Dynal AS). Pre-cleared protein lysates were immunoprecipitated with anti-ER-α antibodies (6F11, Novocastra; or MC20, Santa Cruz) at 4° C. overnight. […] NEN Life Sciences, Boston, Mass.) at 4° C. for 18 hours. The incubation was terminated by adsorption of the binding sites onto an equal volume of hydroxylapatite (HAP) slurry in TESD buffer. HAP pellets were washed four times with Tris-buffered saline containing 0.2% Tween-20 buffer and extracted with 1 ml absolute ethanol overnight at room temperature. The ethanol supernatants were transferred to liquid scintillation fluid (5 ml) and counted. Control tubes, used in assessing HAP adsorption of free steroid, contained HAP and the same buffer constituents, without addition of the membranes. Non-specific binding was assayed in the membranes using the same amount of radioactive ligand plus 200-fold molar excess of unlabeled diethylstilbestrol (DES) (Sigma-Aldrich). Specific binding was calculated by subtracting non-specific from total binding.

ERK1/2 phosphorylation [7] = experiment: Cholesterol depletion: ERK1/2 phosphorylation in neocortical explants pre-treated with Nystatin; format: cell-based, mouse; conditions: P9 wild-type neocortical explants, 50 μg/ml for 1 hour before a 30 minute pulse
Description: Cholesterol depletion. To determine whether disruption of CLMs impairs estrogen activation of the MAPK cascade, neocortical explants were pre-treated on P9 with the sterol binding agent Nystatin (50 μg/ml) (Sigma-Aldrich), a compound used extensively to document the association of growth factor receptors with caveolae/CLMs (Huang, 1999). […] P9 neocortical explants were exposed to Nystatin (50 μg/ml) (Sigma-Aldrich), BDNF (10 ng/ml) or vehicle control (PBS) for 1 hour prior to pulsing with 10 nM 17β-estradiol for 30 minutes in the continued presence of Nystatin, BDNF or vehicle. Explants were then analyzed by Western immunoblot analysis for phospho-ERK expression using antibodies to phosphorylated p44/42 MAP Kinase (ERK1/2, Thr202/Tyr204; Cell Signaling Technology), as previously described (Singh, 1999; and Singh, 2000).

[8] = 1 μM unlabelled competitor (500-fold molar excess)

## C[C@]12CC[C@@H]3c4ccc(O)cc4CC[C@H]3[C@@H]1C[C@@H](I)[C@@H]2O [16α-iodo-17β-estradiol]
ERK1/2 phosphorylation [1]
  activation of ERK1/2 by ER-α- or ER-β-selective ligands: not activated

## C[C@]12CC[C@@H]3c4ccc(O)cc4CC[C@H]3[C@@H]1CC[C@H]2O [17α-estradiol]
ERK1/2 phosphorylation [2]; 0.1 nM
  phosphorylation of ERK1 and ERK2: elicited MEK-dependent (U0126) phosphorylation of ERK1 and ERK2
ERK1/2 phosphorylation [3]; P7 ERKO neocortical CLMs, 0.1 nM
  phosphorylation of ERK1/2: elicited phosphorylation of ERK1/2
ERK1/2 phosphorylation [3]; non-CLM regions of the plasma membrane, 0.1 nM
  phosphorylation of ERK1/2: did not respond
[4]; 50 nM unlabelled competitor
  inhibition of binding of 3H-estradiol: markedly inhibited
[4]; [8]
  inhibition of binding of 3H-estradiol: reduced to the non-specific levels

## C[C@]12CC[C@@H]3c4ccc(O)cc4CC[C@H]3[C@@H]1CC[C@@H]2O [17β-estradiol]
ERK1/2 phosphorylation [2]; 10 nM
  phosphorylation of ERK1 and ERK2: significantly less than the levels following exposure to 17α-estradiol; also recorded: elicited MEK-dependent (U0126) phosphorylation of ERK1 and ERK2
ERK1/2 phosphorylation [3]; P7 ERKO neocortical CLMs, 10 nM
  phosphorylation of ERK1/2: elicited phosphorylation of ERK1/2
ERK1/2 phosphorylation [3]; non-CLM regions of the plasma membrane, 10 nM
  phosphorylation of ERK1/2: did not respond
[4]; 50 nM unlabelled competitor
  inhibition of binding of 3H-estradiol: markedly inhibited
[4]; [8]
  inhibition of binding of 3H-estradiol: reduced to the non-specific levels
ERK1/2 phosphorylation [5]
  concentration range eliciting activation of ERK1/2: 0.1 to 10 nM

## CC/C(=C(/CC)c1ccc(O)cc1)c1ccc(O)cc1 [DES, diethylstilbestrol]
[6]
  effect on binding of 10 nM 3H-estradiol to P7 ERKO CLMs: suppressed

## C[C@@H]1[C@H](O)[C@@H](C)/C=C/C=C/CC/C=C/C=C/C=C/C=C/C(O[C@H]2O[C@H](C)[C@@H](O)[C@H](N)[C@@H]2O)CC2O[C@](O)(CC(O)C(O)CCC(O)CC(O)CC(O)CC(=O)O[C@H]1C)CC(O)C2C(=O)O (stereo partly shown) [Nystatin]
ERK1/2 phosphorylation [7]
  effect on ERK1/2 phosphorylation elicited by 17β-estradiol (10 nM) and BDNF: decreased the ability of both estradiol and BDNF to elicit ERK1/2 phosphorylation

## N#CC(=C(/N)Sc1ccccc1N)/C(C#N)=C(\N)Sc1ccccc1N [U0126]
ERK1/2 phosphorylation [2]; wild-type neocortical PNS, 10 μM
  effect on estradiol-induced ERK1/2 phosphorylation: inhibited
ERK1/2 phosphorylation [3]; P7 ERKO neocortical CLMs, 10 μM, 30 minutes pre-treatment
  effect on estradiol-induced ERK activation: inhibited

## O=c1oc2cc(O)ccc2c2oc3cc(O)ccc3c12 [coumestrol]
ERK1/2 phosphorylation [1]
  activation of ERK1/2 by ER-α- or ER-β-selective ligands: not activated

## O=c1c(-c2ccc(O)cc2)coc2cc(O)cc(O)c12 [genistein]
ERK1/2 phosphorylation [1]
  activation of ERK1/2 by ER-α- or ER-β-selective ligands: not activated

## CC(=O)[C@H]1CC[C@H]2[C@@H]3CCC4=CC(=O)CC[C@]4(C)[C@H]3CC[C@]12C [progesterone]
[4]; [8]
  inhibition of binding of 3H-estradiol: only partially suppressing binding
